Measurements from EPA's ToxRefDB 2.

Legend:
[1] = tested on: mouse; details: Carcinogenicity; b6c3f1; Oral; Feed; dose end: 78 week; group: systemic; systemic / in life observation / body weight / body weight
[2] = tested on: rat; details: Carcinogenicity; fischer; Oral; Feed; dose end: 78 week; group: systemic; systemic / in life observation / body weight / body weight
[3] = tested on: rabbit; details: Prenatal developmental toxicity study, new zealand white, Oral, Gavage/Intubation, dose end: 20 GD
[4] = tested on: dog; details: Subchronic oral toxicity in nonrodent, beagle, Feed, dose end: 90 day, group: systemic, systemic / pathology microscopic / kidney / vacuolization
[5] = tested on: rat; details: Chronic toxicity, wistar, Oral, Feed, dose end: 108 week, group: systemic
[6] = tested on: dog; details: Chronic toxicity; beagle; Oral; [Not Specified]; dose end: 12 month; group: systemic; systemic / in life observation / body weight / body weight + systemic / in life observation / body weight / body weight gain + systemic / …
[7] = tested on: mouse; details: Carcinogenicity, b6c3f1, Oral, Feed, dose end: 24 month, group: systemic
[8] = tested on: rat; details: Carcinogenicity; wistar; Oral; [Not Specified]; dose end: 24 month; group: systemic; systemic / in life observation / mortality / mortality
[9] = tested on: rat; details: Combined chronic toxicity/carcinogenicity, fischer, Oral, Feed, dose end: 103 week, group: systemic
[10] = tested on: mouse; details: Carcinogenicity; b6c3f1; Oral; Feed; dose end: 101 week; group: systemic; systemic / in life observation / body weight / body weight + systemic / pathology microscopic / liver / hyperplasia + systemic / pathology …
[11] = tested on: mouse; details: Subchronic oral toxicity in rodents, b6c3f1, Feed, dose end: 7 week, group: systemic, systemic / in life observation / body weight / body weight
[12] = tested on: rat; details: Subchronic oral toxicity in rodents, fischer, Feed, dose end: 7 week, group: systemic
[13] = tested on: mouse; details: Carcinogenicity; b6c3f1; Oral; Feed; dose end: 104 week; group: systemic; systemic / in life observation / body weight / body weight + systemic / in life observation / body weight / body weight gain + systemic / in…
[14] = tested on: dog; details: Chronic toxicity; beagle; Oral; Feed; dose end: 52 week; group: systemic; systemic / clinical chemistry / aminopyrine-n-demethylase / aminopyrine-n-demethylase + systemic / in life observation / body weight / body …
[15] = tested on: rabbit; details: Prenatal developmental toxicity study, himalayan, Oral, Gavage/Intubation, dose end: 28 GD
[16] = tested on: rat; details: Subchronic oral toxicity in rodents, wistar, Feed, dose end: 14 week, group: systemic
[17] = tested on: rat; details: Multigenerational reproductive toxicity study, wistar, Oral, Feed, dose end: 2 generation
[18] = tested on: mouse; details: Prenatal developmental toxicity study; cd1; Oral; Gavage/Intubation; dose end: 14 GD; group: maternal; systemic / in life observation / body weight / body weight gain + systemic / in life observation / mortality / mortality
[19] = tested on: rat; details: Chronic toxicity; sprague dawley; Oral; Feed; dose end: 104 week; group: systemic; systemic / pathology microscopic / mammary gland / mixed tumor nos + systemic / in life observation / body weight / body weight gain + …
[20] = tested on: mouse; details: Multigenerational reproductive toxicity study, cd1, Oral, Feed, dose end: 2 generation
[21] = tested on: mouse; details: Prenatal developmental toxicity study, cd1, Oral, Gavage/Intubation, dose end: 15 GD
[22] = tested on: rat; details: Prenatal developmental toxicity study; sprague dawley; Oral; Gavage/Intubation; dose end: 17 GD; group: maternal; systemic / in life observation / body weight / body weight gain
[23] = tested on: mouse; details: Carcinogenicity; b6c3f1; Oral; Gavage/Intubation; dose end: 103 week; group: systemic; systemic / pathology microscopic / stomach / hyperkeratosis + systemic / pathology microscopic / stomach / hyperplasia + systemic / …
[24] = tested on: rat; details: Carcinogenicity; fischer; Oral; Gavage/Intubation; dose end: 103 week; group: systemic; systemic / pathology microscopic / stomach / hyperkeratosis + systemic / pathology microscopic / stomach / hyperplasia + systemic / …
[25] = tested on: mouse; details: Subchronic oral toxicity in rodents, b6c3f1, Gavage/Intubation, dose end: 13 week, group: systemic, systemic / in life observation / mortality / mortality
[26] = group: developmental, systemic / in life observation / body weight / fetal weight
[27] = group: maternal, reproductive / reproductive performance / aborted / aborted + systemic / in life observation / body weight / body weight gain
[28] = systemic / in life observation / body weight / body weight
[29] = systemic / in life observation / body weight / body weight + systemic / clinical chemistry / calcium / calcium + systemic / clinical …
[30] = systemic / in life observation / body weight / body weight + systemic / in life observation / body weight / body weight gain + systemic / …
[31] = systemic / in life observation / body weight / body weight + systemic / pathology microscopic / lung / mixed tumor nos + systemic / …
[32] = group: developmental, developmental / developmental malformation / bone / incomplete ossification + systemic / in life observation / body weight / fetal weight
[33] = group: developmental, developmental / developmental malformation / bone / incomplete ossification + systemic / in life observation / body weight / fetal weight + …
[34] = group: maternal, systemic / in life observation / clinical signs / alopecia + systemic / in life observation / clinical signs / cold ears + systemic / in …
[35] = systemic / organ weight / spleen / absolute + systemic / organ weight / spleen / relative to body weight + systemic / clinical chemistry / …
[36] = group: offspring, systemic / in life observation / body weight / offspring (pup) weight + systemic / pathology gross / liver / irregular surface + systemic / …
[37] = group: offspring, systemic / in life observation / body weight / offspring (pup) weight + developmental / offspring survival late / lactation index / …
[38] = group: parental, systemic / in life observation / body weight / body weight + systemic / in life observation / body weight / body weight gain + systemic / in…
[39] = group: reproductive, reproductive / reproductive performance / fertility / fertility
[40] = group: reproductive, reproductive / reproductive performance / fertility / fertility + reproductive / offspring survival early / litter size / litter size
[41] = group: developmental, developmental / developmental malformation / bone / exencephaly + developmental / developmental malformation / trunk / omphalocele + …
[42] = group: maternal, reproductive / reproductive performance / resorptions / resorptions + systemic / in life observation / body weight / dam weight
[43] = group: maternal, reproductive / reproductive performance / resorptions / resorptions + systemic / in life observation / body weight / dam weight + …

Structure (SMILES): Cc1ccc([N+](=O)[O-])cc1N [2-Methyl-5-nitroaniline]
- LEL [1]: 180 mg/kg/day
- LOAEL [1]: 180 mg/kg/day
- NEL [1]: < 180 mg/kg/day
- NOAEL [1]: < 180 mg/kg/day
- LEL [2]: 2.5 mg/kg/day
- LOAEL [2]: 2.5 mg/kg/day
- NEL [2]: < 2.5 mg/kg/day
- NOAEL [2]: < 2.5 mg/kg/day

Structure (SMILES): O=S(=O)(O)C(F)(F)C(F)(F)C(F)(F)C(F)(F)C(F)(F)C(F)(F)C(F)(F)C(F)(F)F [PFOS]
- LEL [3, 26]: 3.75 mg/kg/day
- LOAEL [3, 26]: > 3.75 mg/kg/day
- NEL [3, 26]: 1 mg/kg/day
- NOAEL [3, 26]: ≥ 3.75 mg/kg/day
- LOAEL [3, 27]: > 2.5 mg/kg/day
- NEL [3, 27]: 0.1 mg/kg/day
- NOAEL [3, 27]: ≥ 2.5 mg/kg/day
- LEL ([3]; group: maternal, systemic / in life observation / body weight / body weight gain): 1 mg/kg/day

Structure (SMILES): Nc1cnn(-c2ccccc2)c(=O)c1Cl [Chloridazon]
- LEL [4]: 133 mg/kg/day
- LOAEL [4]: 133 mg/kg/day
- NEL [4]: < 133 mg/kg/day
- NOAEL [4]: < 133 mg/kg/day
- LOAEL [5, 28]: 60 mg/kg/day
- LEL ([5]; systemic / in life observation / body weight / body weight + systemic / clinical chemistry / calcium / calcium): 60 mg/kg/day
- NEL [5, 29]: 18 mg/kg/day
- NOAEL [5, 29]: 18 mg/kg/day
- LEL [6]: 186 mg/kg/day
- LOAEL [6]: 186 mg/kg/day
- NEL [6]: < 186 mg/kg/day
- NOAEL [6]: < 186 mg/kg/day
- LOAEL ([7]; systemic / in life observation / body weight / body weight + systemic / in life observation / body weight / body weight gain): 762 mg/kg/day
- NEL [7, 30]: 28 mg/kg/day
- NOAEL [7, 30]: 146 mg/kg/day
- LEL ([7]; systemic / pathology microscopic / lung / adenoma): 146 mg/kg/day
- LEL [8]: 150 mg/kg/day
- LOAEL [8]: > 200 mg/kg/day
- NEL [8]: < 150 mg/kg/day
- NOAEL [8]: ≥ 200 mg/kg/day

Structure (SMILES): Cc1ccc(N)cc1N [2,4-Diaminotoluene]
- LOAEL [9, 28]: 3.95 mg/kg/day
- NOAEL [9, 28]: < 3.95 mg/kg/day
- LEL [9, 31]: 3.95 mg/kg/day
- NEL [9, 31]: < 3.95 mg/kg/day
- LEL [10]: 15 mg/kg/day
- LOAEL [10]: 15 mg/kg/day
- NEL [10]: < 15 mg/kg/day
- NOAEL [10]: < 15 mg/kg/day
- LEL [11]: 30 mg/kg/day
- LOAEL [11]: 45 mg/kg/day
- NEL [11]: 15 mg/kg/day
- NOAEL [11]: 30 mg/kg/day
- LEL [12, 28]: 12.5 mg/kg/day
- LOAEL [12, 28]: 25 mg/kg/day
- NEL [12, 28]: < 12.5 mg/kg/day
- NOAEL ([12]; systemic / in life observation / body weight / body weight + systemic / in life observation / mortality / mortality + systemic / pathology …): 12.5 mg/kg/day

Structure (SMILES): COc1nn(C(=O)[N-]S(=O)(=O)c2ccccc2OC(F)(F)F)c(=O)n1C.[Na+] [Flucarbazone-sodium]
- LEL [13]: 2070 mg/kg/day
- LOAEL [13]: 2070 mg/kg/day
- NEL [13]: 275 mg/kg/day
- NOAEL [13]: 275 mg/kg/day
- LEL [14]: 183 mg/kg/day
- LOAEL [14]: 183 mg/kg/day
- NEL [14]: 35.9 mg/kg/day
- NOAEL [14]: 35.9 mg/kg/day
- LEL [15, 32]: 500 mg/kg/day
- LOAEL [15, 32]: 500 mg/kg/day
- NEL [15, 33]: 300 mg/kg/day
- NOAEL [15, 33]: 300 mg/kg/day
- LEL [15, 34]: 300 mg/kg/day
- LOAEL [15, 34]: 300 mg/kg/day
- NEL [15, 34]: 100 mg/kg/day
- NOAEL [15, 34]: 100 mg/kg/day
- LEL ([16]; systemic / organ weight / spleen / absolute + systemic / organ weight / spleen / relative to body weight): 73.5 mg/kg/day
- NEL [16, 35]: 17.6 mg/kg/day
- NOAEL [16, 35]: 73.5 mg/kg/day
- LOAEL ([16]; systemic / organ weight / spleen / absolute + systemic / organ weight / spleen / relative to body weight + systemic / pathology microscopic…): 287 mg/kg/day
- LEL [17, 36]: 1060 mg/kg/day
- LOAEL [17, 36]: 1060 mg/kg/day
- NEL [17, 36]: 346 mg/kg/day
- NOAEL [17, 36]: 346 mg/kg/day
- LOAEL ([17]; group: parental, systemic / organ weight / uterus / absolute): 991 mg/kg/day
- NOAEL ([17]; group: parental, systemic / organ weight / uterus / absolute + systemic / in life observation / body weight / body weight + systemic / in life observation / …): 340 mg/kg/day
- LEL ([17]; group: parental, systemic / pathology gross / intestine large / dilatation): 453 mg/kg/day
- NEL ([17]; group: parental, systemic / pathology gross / intestine large / dilatation + systemic / in life observation / clinical signs / defecation + systemic / in …): 5.5 mg/kg/day

Structure (SMILES): O=[N+]([O-])c1ccc(O)cc1 [4-Nitrophenol]
- LEL [18]: 400 mg/kg/day
- LOAEL [18]: > 400 mg/kg/day
- NEL [18]: < 400 mg/kg/day
- NOAEL [18]: ≥ 400 mg/kg/day

Structure (SMILES): C#C[C@]1(OC(C)=O)CC[C@H]2[C@@H]3CCC4=CC(=O)CC[C@@H]4[C@H]3CC[C@@]21C [Norethindrone acetate]
- LEL [19]: 0.289 mg/kg/day
- LOAEL [19]: > 3.3 mg/kg/day
- NEL [19]: < 0.289 mg/kg/day
- NOAEL [19]: ≥ 3.3 mg/kg/day

Structure (SMILES): O=[As](O)(O)O [Arsenic acid]
- LOAEL ([20]; group: offspring, systemic / in life observation / body weight / offspring (pup) weight): 25 mg/kg/day
- LEL [20, 37]: 25 mg/kg/day
- NEL [20, 37]: 5 mg/kg/day
- NOAEL [20, 37]: 5 mg/kg/day
- LEL [20, 38]: 5 mg/kg/day
- LOAEL [20, 38]: 5 mg/kg/day
- NEL [20, 38]: 1 mg/kg/day
- NOAEL [20, 38]: 1 mg/kg/day
- NEL [20, 39]: 5 mg/kg/day
- NOAEL [20, 39]: 5 mg/kg/day
- LEL [20, 40]: 25 mg/kg/day
- LOAEL [20, 40]: 25 mg/kg/day
- LEL [21, 41]: 64 mg/kg/day
- LOAEL [21, 41]: 64 mg/kg/day
- NEL [21, 41]: 32 mg/kg/day
- NOAEL [21, 41]: 32 mg/kg/day
- LEL [21, 42]: 32 mg/kg/day
- LOAEL [21, 42]: 32 mg/kg/day
- NEL [21, 43]: 10 mg/kg/day
- NOAEL [21, 43]: 10 mg/kg/day

Structure (SMILES): CCCCc1ncc(/C=C(\Cc2cccs2)C(=O)O)n1Cc1ccc(C(=O)O)cc1 [Eprosartan]
- LEL [22]: 1000 mg/kg/day
- LOAEL [22]: 1000 mg/kg/day
- NEL [22]: 100 mg/kg/day
- NOAEL [22]: 100 mg/kg/day

Structure (SMILES): C=CC(=O)OCC [Ethyl acrylate]
- LEL [23]: 100 mg/kg/day
- LOAEL [23]: 100 mg/kg/day
- NEL [23]: < 100 mg/kg/day
- NOAEL [23]: < 100 mg/kg/day
- LEL [24]: 100 mg/kg/day
- LOAEL [24]: 100 mg/kg/day
- NEL [24]: < 100 mg/kg/day
- NOAEL [24]: < 100 mg/kg/day
- LEL [25]: 25 mg/kg/day
- LOAEL [25]: > 25 mg/kg/day
- NEL [25]: 12 mg/kg/day
- NOAEL [25]: ≥ 25 mg/kg/day
